# Entries after “also recorded” stand apart in the source; their conditions may differ. Read-outs that look alike come from different tables or passages of the source.
# Key:
# NF-κB [1] = test: TNF-α induced NF-κB luciferase reporter assay in C2C12 myoblasts; format: cell-based; settings: for NF-κB inhibition in myoblasts: 0.0001-10μM, TNF-α 10ng/ml; for Luciferase activity (reduced to): 1μg/ml, myoblasts
# C2C12 myotubes = test: MTT cell viability assay in C2C12 myotubes; settings: for Myotubes % Cell Viability: MTT at respective IC50 concentration, relative to untreated controls
# NF-κB [2] = test: TNF-α induced NF-κB luciferase reporter assay in C2C12 myotubes; format: cell-based; settings: 0.0001-10μM, TNF-α 10ng/ml
# NF-κB p65 = test: Immunostaining for NF-κB p65 nuclear translocation in C2C12 myoblasts; format: cell-based; settings: drug 1μg/ml 24 hours, then TNF-α 24 hours
# [3] = MTT cell viability assay in C2C12 myoblasts; settings: mouse
# NF-κB [4] = settings: read-out: IC50, LPS-induced NF-κB; macrophage cell line; cited from earlier work
# [5] = 10mg/kg; cited from earlier work
# [6] = MTT cell viability assay in C2C12 myotubes; settings: mouse
# [7] = mdx mouse; 5mg/kg; cited from earlier work
# NF-κB [8] = settings: read-out: IC50, NF-κB inhibition; macrophage reporter cell line; cited from earlier work
# [9] = mdx model; 1.2mg/kg; cited from earlier work
# in vitro = settings: mouse
# NF-κB [10] = settings: primary human peripheral blood and mononuclear cells; cited from earlier work
# C2C12 myoblasts = test: MTT cell viability assay in C2C12 myoblasts; settings: MTT at respective IC50 concentration; relative to untreated controls
# [11] = Myoblast, read-out: NF-κB inhibition luciferase activity, Mean ± SD
compound,measurement,setting,value
CC(C)(C)c1ccc(S(=O)(=O)/C=C/C#N)cc1 [Bay 11-7085],NF-κB inhibition in myoblasts,NF-κB [1],but not myoblasts
same,Myotubes % Cell Viability,C2C12 myotubes,87.2%
same,NF-κB inhibition in myotubes (words),NF-κB [2]; listed as BAY 11-7085,no inhibition
same,NF-κB inhibition in myotubes (words),NF-κB [2]; listed as Bay-11 7085,exhibited NF-κB inhibition
CC1=C(O)C(=O)C=C2C1=CC=C1[C@@]2(C)CC[C@@]2(C)[C@@H]3C[C@](C)(C(=O)O)CC[C@]3(C)CC[C@]12C [Celastrol],NF-κB nuclear translocation (qualitative),NF-κB p65,appeared to block nuclear translocation; also recorded: reduced the amount of nuclear translocation
same,IC50,"NF-κB [1]; Mus musculus, C2C12, read-out: IC50 in myocytes",~1 nM
same,viability at 48 h,[3],83.9%
same,IC50,NF-κB [4],270 nM
same,Paw swelling,[5],reduce paw swelling a similar amount as Prednisolone
same,viability at 48 h,[6],72.1%
same,Toxicity to myotubes,"C2C12 myotubes; 10μg/ml, MTT",35%
"O=C(O[C@@H]1Cc2c(O)cc(O)cc2O[C@@H]1c1cc(O)c(O)c(O)c1)c1cc(O)c(O)c(O)c1 [EGCG, Epigallocatechin gallate]",NF-κB inhibition in myoblasts,NF-κB [1],did not inhibit NF-κB
same,"NF-κB inhibition in myocytes, myoblasts and myotubes together",NF-κB [1],mostly ineffective
same,"Muscle histology, force contractions and creatine kinase leakage",[7],"improve mdx mouse muscle histology, force contractions and creatine kinase leakage"
same,NF-κB inhibition in myotubes (words),NF-κB [2],did not inhibit NF-κB
same,IC50,NF-κB [8],12 µM
Cc1ccc(=O)n(-c2ccccc2)c1 [Pirfenidone],NF-κB inhibition in myoblasts,NF-κB [1],did not inhibit NF-κB
same,"NF-κB inhibition in myocytes, myoblasts and myotubes together",NF-κB [1],mostly ineffective
same,NF-κB inhibition in myotubes (words),NF-κB [2],did not inhibit NF-κB
same,Cardiac function,[9],improve cardiac function
C[C@]12C=CC(=O)C=C1CC[C@@H]1[C@@H]2[C@@H](O)C[C@@]2(C)[C@H]1CC[C@]2(O)C(=O)CO [Prednisolone],NF-κB nuclear translocation (qualitative),NF-κB p65,appeared to block nuclear translocation; also recorded: reduced the amount of nuclear translocation
same,viability at 48 h,in vitro,81.6%
same,inhibition at 0.1 µM,NF-κB [1]; [11],51.7 ± 13.6%
same,inhibition at 1 µM,NF-κB [1]; [11],79.2 ± 9.22%
same,inhibition at 10 µM,NF-κB [1]; [11],85.4 ± 4.59%
same,Luciferase activity (reduced to),"NF-κB [1]; long regime: 24 h pretreatment, 24 h TNF-α",38%
same,"NF-κB inhibition in myocytes, myoblasts and myotubes together",NF-κB [1],effective at inhibiting the NF-κB pathway
same,Luciferase activity (reduced to),"NF-κB [1]; short regime: 30min pretreatment, 3hr TNF-α",49.5%
same,viability at 48 h,[3]; C2C12 myoblasts containing an NF-κB luciferase reporter,78.8%
CC1=C(CO)C(=O)O[C@@H]([C@@H](C)[C@H]2CC[C@H]3[C@@H]4C[C@H]5O[C@]56[C@@H](O)C=CC(=O)[C@]6(C)[C@H]4CC[C@]23C)C1 [Withaferin],"NF-κB inhibition in myocytes, myoblasts and myotubes together",NF-κB [1],effective at inhibiting NF-κB
same,Maximal effective dose,NF-κB [10],1.0 mg/mL
same,Myoblasts % Cell Viability,C2C12 myoblasts,61.1%
same,Myotubes % Cell Viability,C2C12 myotubes,72.7%
Thymosin β4: small actin-sequestering protein that reduces inflammation and promotes healing in multiple tissues,NF-κB inhibition in myoblasts,NF-κB [1],did not inhibit NF-κB
same,"NF-κB inhibition in myocytes, myoblasts and myotubes together",NF-κB [1],mostly ineffective
same,NF-κB inhibition in myotubes (words),NF-κB [2],did not inhibit NF-κB
